{"source": "paper PMC7913927", "about": "“Leishmanicidal Activity of Betulin Derivatives in Leishmania amazonensis; Effect on Plasma and Mitochondrial Membrane Potential, and Macrophage Nitric Oxide and Superoxide Production” (Microorganisms, 2021)", "key": {"[1]": {"system": "L. (L.) amazonensis LTB0016 promastigotes", "assay": "Promastigote in vitro susceptibility (Alamar Blue/resazurin), reference strain", "assay_type": "cell-based, Leishmania amazonensis", "conditions": "Leishmania amazonensis; LTB0016 promastigotes, 72 h; read-out: Promastigote (GI50) mean", "protocol": "The fluorometric method of Alamar Blue® (resazurin) was used. Promastigotes grown in biphasic agar-blood medium, at the exponential phase of growth, were seeded in flat-bottom 96-well culture plates, at a cell density of 1 × 10^6 parasites mL^−1 (200,000 parasites/well), in 180 µL of RPMIc without phenol red. Subsequently, either a sole concentration (50 µM), or increasing concentrations of compounds or drugs were applied, according to each treatment group, in volumes of 2 µL. Plates were kept at 26 °C, in a humid chamber, for 72 h. […] Live parasites are metabolically active and capable of reducing non-fluorescent resazurin (blue) to fluorescent resorufin (red). Fluorescence intensity is directly proportional to the number of viable cells. […] At least two independent experiments were performed in duplicate. The effect of trivalent antimonial [SbIII, potassium antimonyl tartrate trihydrate, Sigma-Aldrich, (St. Louis, MO, USA)] was included as positive control of the assay."}, "[2]": {"system": "VE2000MM intracellular amastigotes in J774.1 macrophages", "assay": "Macrophage-amastigote model, patient isolate VE2000MM", "assay_type": "cell-based, Leishmania amazonensis", "protocol": "(§1) We used a previously described methodology, with some modifications. Macrophage monolayers, grown in RMPIc medium, for 3 days, were detached from the bottom of the culture chamber, by physical treatment (low temperature and light strokes). Obtained macrophages were seeded in flat-bottom 96-well culture plates, at a density of 2 × 10^5 cells mL^−1 (40,000 macrophages/well), in a final volume of 200 µL. Plates were incubated for 2 h, and the supernatant was discarded to remove non-adhered macrophages. Medium was replaced with stationary-phase promastigotes suspended in 200 µL of RPMIc (2 × 10^6 parasites mL^−1, 400,000 parasites/well), at a macrophage: parasite ratio 1:10 [40]. The plates were incubated for 4 h. Afterwards the medium was replaced with fresh RPMIc and increasing concentrations of compounds or drugs tested were applied, in volumes of 2 µL, according to the different treatment groups. Plates were kept for 72 h, at 37 °C and 5% CO2. The medium was discarded and the wells were washed twice with PBS. Next, a Giemsa staining was performed in situ. It consisted of adding 200 µL of methanol/well, incubating for 5 min, discarding the fixative, and letting it dry at room temperature. Later, the Giemsa solution (10% in PBS w/v, 200 µL/well) was added, incubated for 10 min, and washed with PBS, allowing it to dry. Finally, the bottom of the plates was detached by percussion and the circular bottoms (wells) were fixed to slides with Permount synthetic resin, for later evaluation (Alcazar W., manuscript in preparation). Cell counting was performed with a 100× immersion objective. A minimum of 200 random macrophages were examined. The percentage of infected macrophages (% infection) and the average number of amastigotes present in infected macrophages (amastigotes) were determined. […] The infection rate represents the number of intracellular amastigotes per 100 macrophages evaluated. Additionally, the GI50 for the decrease in the infection rate was calculated. At least three independent experiments were performed. The effect of amphotericin-B (AmB) [Sigma-Aldrich, (St. Louis, MO, USA)] was included as positive control of the assay."}, "[3]": {"assay": "Cytotoxicity (Alamar Blue) in macrophages", "assay_type": "cell-based, murine", "conditions": "mouse, J774.1 macrophages", "protocol": "In flat-bottom 96-well culture plates, J774.1 macrophages were seeded at a cell density of 5 × 10^4 mL^−1 (10,000 macrophages/well) in 200 µL of RPMIc. After 24 h at 37 °C, 5% CO2, medium was replaced by 180 µL of RPMIc, without phenol red, and increasing concentrations of test compounds in 2-µL volumes. […] At least two independent experiments were performed in duplicate. Based on the inhibition of cell growth caused by the tested compounds, the percentage of growth inhibition compared to untreated cells was calculated. […] Selectivity indices (SI) were calculated, dividing the macrophage CC50 by the parasites GI50 (SI = CC50/GI50)."}, "[4]": {"system": "VE98MR intracellular amastigotes in J774.1 macrophages", "assay": "Macrophage-amastigote model, patient isolate VE98MR", "assay_type": "cell-based, Leishmania amazonensis", "protocol": "as §1"}, "[5]": {"system": "LTB0016 intracellular amastigotes in J774.1 macrophages", "assay": "Macrophage-amastigote model, reference strain", "assay_type": "cell-based, Leishmania amazonensis", "protocol": "as §1"}, "[6]": {"conditions": "J774.1 CC50 / intracellular amastigote GI50, Table 2"}}, "data": [{"compound": "C[C@@H]1[C@H](O)[C@@H](C)/C=C/C=C/C=C/C=C/C=C/C=C/C=C/[C@H](O[C@@H]2O[C@H](C)[C@@H](O)[C@H](N)[C@@H]2O)C[C@@H]2O[C@](O)(C[C@@H](O)C[C@@H](O)[C@H](O)CC[C@@H](O)C[C@@H](O)CC(=O)O[C@H]1C)C[C@H](O)[C@H]2C(=O)O", "note": "[AmB, amphotericin-B, reference compound]", "values": [{"measurement": "GI50", "setting": "[1]", "result": 68, "unit": "nM"}, {"measurement": "SI (CC50/GI50) VE2000MM", "setting": "[2]; [6]", "result": ">125"}, {"measurement": "GI50", "setting": "[2]; Leishmania amazonensis, J774.1, intracellular amastigotes, 72 h, Table 2, read-out: GI50 (µM) VE2000MM", "result": 0.08, "unit": "µM"}, {"measurement": "Growth (%) Exp1 %Control", "setting": "[2]; VE2000MM, dose 0.10 µM, Exp1", "result": 7.30, "unit": "%"}, {"measurement": "Growth (%) Exp1 A/100MØ", "setting": "[2]; VE2000MM, dose 0.10 µM, Exp1", "result": 18.04}, {"measurement": "Growth (%) Exp1 A/MØ", "setting": "[2]; VE2000MM, dose 0.10 µM, Exp1", "result": 1.70}, {"measurement": "Growth (%) Exp1 Infección", "setting": "[2]; VE2000MM, dose 0.10 µM, Exp1", "result": 10.61, "unit": "%"}, {"measurement": "Growth (%) Exp2 %Control", "setting": "[2]; VE2000MM, dose 0.10 µM, Exp2", "result": 9.84, "unit": "%"}, {"measurement": "Growth (%) Exp2 A/100MØ", "setting": "[2]; VE2000MM, dose 0.10 µM, Exp2", "result": 23.78}, {"measurement": "Growth (%) Exp2 A/MØ", "setting": "[2]; VE2000MM, dose 0.10 µM, Exp2", "result": 2.17}, {"measurement": "Growth (%) Exp2 Infección", "setting": "[2]; VE2000MM, dose 0.10 µM, Exp2", "result": 10.96, "unit": "%"}, {"measurement": "Growth (%) Exp3 %Control", "setting": "[2]; VE2000MM, dose 0.10 µM, Exp3", "result": 7.62, "unit": "%"}, {"measurement": "Growth (%) Exp3 A/100MØ", "setting": "[2]; VE2000MM, dose 0.10 µM, Exp3", "result": 17.22}, {"measurement": "Growth (%) Exp3 A/MØ", "setting": "[2]; VE2000MM, dose 0.10 µM, Exp3", "result": 2.00}, {"measurement": "Growth (%) Exp3 Infección", "setting": "[2]; VE2000MM, dose 0.10 µM, Exp3", "result": 8.61, "unit": "%"}, {"measurement": "Average A/100MØ", "setting": "[2]; VE2000MM, dose 0.10 µM, average of Exp1-3", "result": 19.68}, {"measurement": "CC50 at 72 h", "setting": "[3]", "result": "> 10000", "unit": "nM"}, {"measurement": "SI (CC50/GI50) VE98MR", "setting": "[4]; [6]", "result": ">136"}, {"measurement": "GI50", "setting": "[4]; Leishmania amazonensis, J774.1, intracellular amastigotes, 72 h, Table 2, read-out: GI50 (µM) VE98MR", "result": 0.073, "unit": "µM"}, {"measurement": "Growth (%) Exp1 %Control", "setting": "[4]; VE98MR, dose 0.10 µM, Exp1", "result": 10.60, "unit": "%"}, {"measurement": "Growth (%) Exp1 A/100MØ", "setting": "[4]; VE98MR, dose 0.10 µM, Exp1", "result": 17.06}, {"measurement": "Growth (%) Exp1 A/MØ", "setting": "[4]; VE98MR, dose 0.10 µM, Exp1", "result": 1.26}, {"measurement": "Growth (%) Exp1 Infección", "setting": "[4]; VE98MR, dose 0.10 µM, Exp1", "result": 13.54, "unit": "%"}, {"measurement": "Growth (%) Exp2 %Control", "setting": "[4]; VE98MR, dose 0.10 µM, Exp2", "result": 2.71, "unit": "%"}, {"measurement": "Growth (%) Exp2 A/100MØ", "setting": "[4]; VE98MR, dose 0.10 µM, Exp2", "result": 5.60}, {"measurement": "Growth (%) Exp2 A/MØ", "setting": "[4]; VE98MR, dose 0.10 µM, Exp2", "result": 1.16}, {"measurement": "Growth (%) Exp2 Infección", "setting": "[4]; VE98MR, dose 0.10 µM, Exp2", "result": 4.83, "unit": "%"}, {"measurement": "Growth (%) Exp3 %Control", "setting": "[4]; VE98MR, dose 0.10 µM, Exp3", "result": 6.21, "unit": "%"}, {"measurement": "Growth (%) Exp3 A/100MØ", "setting": "[4]; VE98MR, dose 0.10 µM, Exp3", "result": 15.40}, {"measurement": "Growth (%) Exp3 A/MØ", "setting": "[4]; VE98MR, dose 0.10 µM, Exp3", "result": 2.00}, {"measurement": "Growth (%) Exp3 Infección", "setting": "[4]; VE98MR, dose 0.10 µM, Exp3", "result": 7.70, "unit": "%"}, {"measurement": "Average A/100MØ", "setting": "[4]; VE98MR, dose 0.10 µM, average of Exp1-3", "result": 12.69}, {"measurement": "SI (CC50/GI50) LTB0016", "setting": "[5]; [6]", "result": ">500"}, {"measurement": "Growth (%) Exp1 Infección", "setting": "[5]; LTB0016, 0.10 µM, 72 h, Exp1, % infected macrophages", "result": 12.89, "unit": "%"}, {"measurement": "Growth (%) Exp1 A/MØ", "setting": "[5]; LTB0016, 0.10 µM, 72 h, Exp1, amastigotes per infected macrophage", "result": 2.10}, {"measurement": "Growth (%) Exp1 A/100MØ", "setting": "[5]; LTB0016, 0.10 µM, 72 h, Exp1, infection index", "result": 27.07}, {"measurement": "Growth (%) Exp1 %Control", "setting": "[5]; LTB0016, 0.10 µM, 72 h, Exp1, infection index vs DMSO", "result": 10.32, "unit": "%"}, {"measurement": "Growth (%) Exp2 Infección", "setting": "[5]; LTB0016, 0.10 µM, 72 h, Exp2, % infected macrophages", "result": 13.33, "unit": "%"}, {"measurement": "Growth (%) Exp2 A/MØ", "setting": "[5]; LTB0016, 0.10 µM, 72 h, Exp2, amastigotes per infected macrophage", "result": 1.38}, {"measurement": "Growth (%) Exp2 A/100MØ", "setting": "[5]; LTB0016, 0.10 µM, 72 h, Exp2, infection index", "result": 18.40}, {"measurement": "Growth (%) Exp2 %Control", "setting": "[5]; LTB0016, 0.10 µM, 72 h, Exp2, infection index vs DMSO", "result": 8.65, "unit": "%"}, {"measurement": "Growth (%) Exp3 Infección", "setting": "[5]; LTB0016, 0.10 µM, 72 h, Exp3, % infected macrophages", "result": 8.08, "unit": "%"}, {"measurement": "Growth (%) Exp3 A/MØ", "setting": "[5]; LTB0016, 0.10 µM, 72 h, Exp3, amastigotes per infected macrophage", "result": 1.33}, {"measurement": "Growth (%) Exp3 A/100MØ", "setting": "[5]; LTB0016, 0.10 µM, 72 h, Exp3, infection index", "result": 10.75}, {"measurement": "Growth (%) Exp3 %Control", "setting": "[5]; LTB0016, 0.10 µM, 72 h, Exp3, infection index vs DMSO", "result": 6.05, "unit": "%"}, {"measurement": "Average A/100MØ", "setting": "[5]; LTB0016, 0.10 µM, 72 h, average of Exp1-3", "result": 18.74}, {"measurement": "GI50", "setting": "[5]; Leishmania amazonensis, J774.1, intracellular amastigotes, 72 h, Table 2, read-out: GI50 (µM) LTB0016", "result": 0.02, "unit": "µM"}]}]}
